Values joined by “and” are separate entries in the source; they are usually repeats but may differ in a detail not shown here. Equal values may be shown once. “Also recorded” adds a separate entry of the source.
What was measured:
[1] = tested on: human AhR; conditions: cited from earlier work
[2] = tested on: CYP1A1; test: Induction of CYP1A1 catalytic activity in LS180 cells; assay type: cell-based, human; conditions: 24 h, inverse U-shape profile
[3] = tested on: CYP1A1; test: Single concentration inactivation assay; assay type: biochemical; conditions: human, human liver microsomes, probe Luciferin-CEE
[4] = tested on: CYP1A1; test: Induction of CYP1A1 catalytic activity in primary human hepatocytes; assay type: cell-based; conditions: 24 h; for induction of CYP1A1 activity, concentration-response profile (in words): then luciferin-CEE 3 h
[5] = tested on: CYP1A genes; test: Induction of CYP1A genes; conditions: 5 F-HepaRG cells, 24 h, MMI 200 μM; for efficacy of CYP1A genes induction relative to TCDD (100%): TCDD 5 nM
[6] = tested on: CYP1A1 and CYP1A2; test: Expression of CYP1A1 and CYP1A2 mRNAs; assay type: cell-based, human; conditions: three donors, 24 h, MMI 200 μM, TCDD 5 nM
[7] = target: T1, AhR (Homo sapiens, UniProt P35869); assay type: cell-based; conditions: AZ-AHR cells, without incubation with hepatocytes
T1 sequence (P35869 11-848): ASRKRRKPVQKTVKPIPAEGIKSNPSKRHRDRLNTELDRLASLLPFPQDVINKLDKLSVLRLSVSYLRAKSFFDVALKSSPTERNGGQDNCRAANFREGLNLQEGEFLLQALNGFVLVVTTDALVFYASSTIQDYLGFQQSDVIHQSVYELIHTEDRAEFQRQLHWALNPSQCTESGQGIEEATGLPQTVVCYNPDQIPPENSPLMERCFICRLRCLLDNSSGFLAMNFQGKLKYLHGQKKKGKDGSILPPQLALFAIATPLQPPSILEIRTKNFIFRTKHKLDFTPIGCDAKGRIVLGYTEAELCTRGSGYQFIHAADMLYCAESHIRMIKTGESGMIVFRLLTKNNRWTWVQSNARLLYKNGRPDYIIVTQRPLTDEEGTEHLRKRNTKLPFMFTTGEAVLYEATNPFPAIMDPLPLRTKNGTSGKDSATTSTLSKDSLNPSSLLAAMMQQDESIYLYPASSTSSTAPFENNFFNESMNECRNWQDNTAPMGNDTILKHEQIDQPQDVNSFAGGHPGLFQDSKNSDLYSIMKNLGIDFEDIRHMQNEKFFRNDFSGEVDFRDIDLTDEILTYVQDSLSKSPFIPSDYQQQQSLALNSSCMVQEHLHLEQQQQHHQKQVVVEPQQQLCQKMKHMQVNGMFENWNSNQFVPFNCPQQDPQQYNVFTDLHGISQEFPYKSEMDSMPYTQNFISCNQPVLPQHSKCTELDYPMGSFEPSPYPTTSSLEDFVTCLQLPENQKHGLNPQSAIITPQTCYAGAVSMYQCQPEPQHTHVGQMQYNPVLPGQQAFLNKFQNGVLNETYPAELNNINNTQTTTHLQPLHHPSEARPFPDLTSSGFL

[8] = tested on: CYP1A1; conditions: ref Stepankova et al., 2018; cited from earlier work
[9] = tested on: CYP1A2 mRNA; test: CYP1A2 mRNA expression; assay type: cell-based, human; conditions: 5 F-HepaRG cells, 24 h, TCDD 5 nM, two consecutive passages
[10] = Residual MMI in culture media after incubation with primary human hepatocytes; assay type: in vitro ADME; conditions: 24 h incubation with human hepatocytes, initial 200 μM
[11] = human hepatocytes, MMI 0.1-200 μM

Structure (SMILES) | concentration at peak of CYP1A1 induction [2] [µM] | induction of CYP1A1 activity, concentration-response profile (in words) [4, 11] | efficacy of CYP1A genes induction relative to TCDD (100%) [5] | induction of CYP1A1 and CYP1A2 mRNAs and proteins in primary human hepatocytes (in words) [6] | also measured
Cc1cccc2[nH]ccc12 [4-methylindole] | 25 | Inverse U-shaped | ~100% | – | efficacy as AhR agonist compared to 3-methylindole (skatole) ([1]; ref Stepankova et al., 2018): approx. 25 times; inhibition at 30 min, 200 μM [3]: 10%
Cc1cccc2cc[nH]c12 [7-methylindole] | – | Concentration-dependent induction | ~ 20% | strong inducer; also recorded: very strong inducer | relative efficacy of CYP1A1 activity induction as compared to TCDD [4, 11]: ~ 2%; AhR agonist activity of parental compound (in words) [7]: weak agonist of AhR; CYP1A induction in LS180 intestinal cells (in words) [8]: modest CYP1A inducer; also recorded: weak inducer; CYP1A induction in HepaRG cells (in words) [5]: modest CYP1A inducer
Clc1cc2c(cc1Cl)Oc1cc(Cl)c(Cl)cc1O2 [TCDD, 2,3,7,8-tetrachlorodibenzo-p-dioxin, reference compound] | – | – | – | strongly induced | induction of CYP1A1 enzyme activity ([4]; human hepatocytes culture Hep200571, TCDD 5 nM): 11 fold; induction of CYP1A1 enzyme activity ([4]; human hepatocytes culture Hep220993, TCDD 5 nM): 153 fold; induction of CYP1A2 mRNA [9]: 34 fold and 50 fold
Cc1ccc2cc[nH]c2c1 [6-methylindole] | 25 | Inverse U-shaped | – | – | efficacy as AhR agonist compared to 3-methylindole (skatole) ([1]; ref Stepankova et al., 2018): approx. 25 times
Cc1ccc2[nH]ccc2c1 [5-methylindole] | – | Inverse U-shaped | ~ 20% | – | inhibition at 30 min, 200 μM [3]: 47%
Cc1c[nH]c2ccccc12 [3-methylindole] | – | No induction | – | Modest induction | activity at human AhR (in words) ([1]; ref Rasmussen et al., 2016): partial agonist

Now from value to compound, other results behind:

concentration at peak of CYP1A1 induction [2] [µM] | induction of CYP1A1 activity, concentration-response profile (in words) [4, 11] | efficacy of CYP1A genes induction relative to TCDD (100%) [5] | induction of CYP1A1 and CYP1A2 mRNAs and proteins in primary human hepatocytes (in words) [6] | Structure (SMILES) | also measured
25 | No induction | – | no effect | Cc1cc2ccccc2[nH]1 [2-methylindole] | activity at AhR (in words) ([1]; ref Stepankova et al., 2018): nearly inactive; CYP1A induction in HepaRG cells (in words) [5]: nearly inactive
– | – | 15% | Modest induction | Cn1ccc2ccccc21 [1-methylindole] | residual MMI in culture media (in words) [10]: no residual MMI was detected

Source: article PMC6684055 (Toxicology letters, 2019)
